Test results from PubChem BioAssay (NCI).
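Dose response: 5 concentrations. Exposure: 48 h. Format: 96-well plates. Endpoint: linear interpolation; highest concentration if not reached. The concentration for 50% growth inhibition is given as GI50. The concentration for full growth arrest is given as TGI.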

How the values were obtained:
Test in all cases: NCI tumour cell line growth inhibition, 48 h
[1] = tested on: EKVX NSCLC
[2] = tested on: HCC-2998 colon
[3] = tested on: HOP-62 NSCLC
[4] = tested on: LOX IMVI melanoma
[5] = tested on: NCI-H226 lung
[6] = tested on: NCI-H460 lung
[7] = tested on: NCI-H522 lung
[8] = tested on: OVCAR-8 ovarian
[9] = tested on: SK-OV-3 ovarian
[10] = tested on: TK-10 renal

| SMILES | GI50 [1] [µM] | TGI [1] [µM] | GI50 [2] [µM] | TGI [2] [µM] | GI50 [3] [µM] | TGI [3] [µM] | GI50 [4] [µM] | TGI [4] [µM] | GI50 [5] [µM] | TGI [5] [µM] | GI50 [6] [µM] | TGI [6] [µM] | GI50 [7] [µM] | TGI [7] [µM] | GI50 [8] [µM] | TGI [8] [µM] | GI50 [9] [µM] | TGI [9] [µM] | GI50 [10] [µM] | TGI [10] [µM] |
| --- | --- | --- | --- | --- | --- | --- | --- | --- | --- | --- | --- | --- | --- | --- | --- | --- | --- | --- | --- | --- |
| Cc1ccccc1NC(=O)c1sc2nc(C)c(C(=O)/C=C/c3ccccc3)cc2c1N | 3.86 | 11.1 | 0.913 | 1.67 | 1.15 | 2.7 | 0.864 | 1.62 | 1.07 | 2.35 | 1.25 | 3.22 | 1.15 | 3.42 | 1.6 | > 50 | 2.5 | 25.9 | 1.55 | 6.04 |
| CCN(CC)CCCNc1cc(OC)cc2nc3cc(Cl)ccc3nc12 | 3.04 | 14.1 | 1.47 | 2.92 | 2.47 | 8.44 | 0.913 | 2.25 | 1.48 | 3.76 | 1.83 | 10.3 | 1.34 | 3.08 | 0.838 | 10.2 | 3.6 | 14.6 | 1.85 | 5.8 |
| COC(=O)c1ccc(CN2C(=O)C(Cl)=C(Nc3cccc(Cl)c3C)C2=O)cc1 | 46.8 | > 100 | 32.5 | 67.5 | 14.2 | > 100 | 32.3 | > 100 | 11 | > 100 | 34.5 | > 100 | 3.51 | 20.8 | 37.2 | > 100 | > 100 | > 100 | 47.8 | > 100 |
| COCc1c(-c2cc3cc(C)cc(OC)c3s2)c2c(N)ncnn2c1CN1CCNC(=O)C1 | 2.67 | 29.8 | 8.37 | > 100 | 2.6 | 15.9 | 3.05 | 13.5 | 0.291 | 5.41 | 4.05 | > 100 | 3.78 | 25.3 | 4.85 | > 100 | 2.62 | 7.72 | 3.64 | 30.6 |
| COc1ccc(C/C(=C(\C)c2ccc(OCCN3CCCC3)cc2)c2ccc(OCCN3CCCC3)cc2)cc1 | 2.21 | 5.89 | 1.74 | 3.19 | 2.18 | 7.02 | 1.73 | 3.18 | 2.54 | 7.64 | 2.08 | 4.17 | 1.86 | 3.53 | 2.05 | 4.38 | 1.86 | 3.68 | 1.55 | 3.02 |
| O=c1[nH]c2ccccc2nc1/C=C(\O)c1ccccc1O | – | > 100 | – | > 100 | – | > 100 | – | > 100 | – | > 100 | – | > 100 | – | > 100 | – | > 100 | – | > 100 | – | > 100 |
| CC1/C(=N\O)CC(c2ccccc2)N(C)C1c1ccccc1 (stereo not drawn) | – | > 100 | – | > 100 | – | > 100 | – | > 100 | – | > 100 | – | > 100 | – | > 100 | – | > 100 | – | > 100 | – | > 100 |
| CCc1ccc(CCC(=O)Nc2ncc(Cc3ccc(Cl)cc3)s2)o1 | 0.527 | > 100 | 0.812 | > 100 | 0.623 | > 100 | 1.02 | > 100 | – | > 100 | 0.335 | > 100 | 0.302 | 53.9 | 0.572 | > 100 | 0.449 | > 100 | – | > 100 |
| Cc1ccc(S(=O)(=O)SC(C)(C)C)cc1 | – | > 63.9 | – | > 58.7 | – | > 100 | – | 60.1 | – | > 100 | – | > 100 | – | 32.3 | – | 48.3 | – | > 100 | – | > 100 |
| O=C(Nc1ccccc1)Nc1ccc2cc3ccc(NC(=O)Nc4ccccc4)cc3nc2c1 | 4.29 | > 100 | 0.556 | 1.91 | 1.59 | 3.4 | 0.467 | 1.67 | 1.71 | 4.15 | 3.95 | > 100 | 1.6 | 3.35 | 1.15 | 2.78 | 2.13 | 4.5 | 3.98 | 9.12 |
